Reference: US20240228482A1, “COMPOUNDS, COMPOSITIONS AND METHODS OF TREATING CANCER” (HOTSPOT THERAPEUTICS, INC., priority 2021, published 2024)

Each compound was assayed against T1, CBL-B (Homo sapiens, UniProt Q13191) (assay: CBL-B TR-FRET IC50 screening (E1/E2 ubiquitination, Biotin-Ubiquitin, Anti GST-Tb donor / Streptavidin-d2 acceptor)). Conditions: CBL-B 10 nM final; 11-point titration from 100 uM; binned A-F; read-out: CBL-B TR-FRET activity IC50.
T1 construct: GST
Assay type: biochemical

T1 sequence (Q13191 whole entry): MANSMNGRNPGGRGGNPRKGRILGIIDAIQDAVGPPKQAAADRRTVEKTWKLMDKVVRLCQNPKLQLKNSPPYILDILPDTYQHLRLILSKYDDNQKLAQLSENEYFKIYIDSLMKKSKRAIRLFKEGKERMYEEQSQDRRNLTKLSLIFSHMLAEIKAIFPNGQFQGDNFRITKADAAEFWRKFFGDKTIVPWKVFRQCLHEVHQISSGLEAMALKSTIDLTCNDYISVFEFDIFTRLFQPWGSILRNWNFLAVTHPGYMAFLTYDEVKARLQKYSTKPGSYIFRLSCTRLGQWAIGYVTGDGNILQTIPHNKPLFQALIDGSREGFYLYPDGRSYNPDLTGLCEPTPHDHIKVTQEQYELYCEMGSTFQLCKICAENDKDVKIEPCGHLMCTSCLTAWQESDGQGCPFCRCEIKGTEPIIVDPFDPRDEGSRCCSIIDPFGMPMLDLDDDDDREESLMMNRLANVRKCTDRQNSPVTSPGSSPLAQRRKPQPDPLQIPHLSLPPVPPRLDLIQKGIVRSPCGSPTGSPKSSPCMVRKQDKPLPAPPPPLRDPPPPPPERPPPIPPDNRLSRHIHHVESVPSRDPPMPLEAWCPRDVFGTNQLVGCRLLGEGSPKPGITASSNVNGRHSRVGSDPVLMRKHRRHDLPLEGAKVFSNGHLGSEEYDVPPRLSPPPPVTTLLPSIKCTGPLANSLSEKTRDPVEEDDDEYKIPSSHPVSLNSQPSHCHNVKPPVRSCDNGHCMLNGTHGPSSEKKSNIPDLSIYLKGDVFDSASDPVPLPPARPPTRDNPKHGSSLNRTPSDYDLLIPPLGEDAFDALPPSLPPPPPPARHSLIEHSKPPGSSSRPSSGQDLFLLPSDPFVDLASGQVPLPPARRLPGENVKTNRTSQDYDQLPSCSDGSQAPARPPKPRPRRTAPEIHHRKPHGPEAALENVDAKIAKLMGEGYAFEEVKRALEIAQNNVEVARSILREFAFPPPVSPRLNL

| Compound | IC50 [nM] |
| --- | --- |
| C[C@H]1CCCN(Cc2cc(C(F)(F)F)c3cn(-c4cc(C#N)cc(C5(Cc6nncn6C)COC5)c4)c(=O)n3c2)C1 [Compound 183] | < 100 |
| CC1CC(c2cccc(-n3cc4c(C(F)(F)F)cc(C#N)cn4c3=O)c2)(c2nncn2C)C1 (stereo not drawn) [Compound 184] | < 100 |
| Cc1conc1CC1(c2cccc(-n3cc4c(C(F)(F)F)cc(CN5CCC[C@H](C)C5)cn4c3=O)c2)COC1 [Compound 185] | 100 to 300 |
| CN1CC(Cc2nncn2C)(c2cccc(-n3cc4c(C(F)(F)F)cccn4c3=O)c2)C1 [Compound 188] | > 10000 |
| Cc1cn(C)nc1CC1(c2cccc(-n3cc4c(C(F)(F)F)cc(CN5CCC[C@H](C)C5)cn4c3=O)c2)COC1 [Compound 197] | 3000 to 10000 |
| [2H]C([2H])([2H])n1cnnc1CC1(c2cccc(-n3cc4c(C(F)(F)F)cc(CN5CCC[C@H](C)C5)cn4c3=O)c2)COC1 [Compound 198] | < 100 |
| [2H]C([2H])([2H])n1cnnc1CC1(c2cccc(-n3cc4c(C(F)(F)F)cc(CN5CCO[C@H](C)C5)cn4c3=O)c2)COC1 [Compound 199] | < 100 |
| C[C@H]1CCCN(Cc2cc(C(F)(F)F)c3cn(-c4cccc(OCc5nncn5C)c4)c(=O)n3c2)C1 [Compound 200] | > 10000 |
| C[C@@H]1CN(Cc2cc(C(F)(F)F)c3cn(-c4cccc(C5(Cc6nncn6C)COC5)c4)c(=O)n3c2)C[C@@H](C)O1 [Compound 201] | < 100 |
| Cn1cnnc1CC1(c2cccc(-n3cc4c(C(F)(F)F)cc(CN5CCCC(O)C5)cn4c3=O)c2)COC1 (stereo not drawn) [Compound 206] | 301 to 1000 |
| Cc1c[nH]nc1CC1(c2cccc(-n3cc4c(C(F)(F)F)cc(CN5CCC[C@H](C)C5)cn4c3=O)c2)COC1 [Compound 207] | < 100 |
| CC(=O)N(c1cccc(-n2cc3c(C(F)(F)F)cccn3c2=O)c1)c1nncn1C [Compound 208] | > 10000 |
| [2H]c1nnc(CC2(c3cccc(-n4cc5c(C(F)(F)F)cc(CN6CCC[C@H](C)C6)cn5c4=O)c3)COC2)n1C [Compound 209] | < 100 |
| O=c1n(-c2cccc(C3(Cc4nnc5n4CCC5)COC3)c2)cc2c(C(F)(F)F)cccn12 [Compound 210] | > 10000 |
| Cn1cnnc1N(c1cccc(-n2cc3c(C(F)(F)F)cccn3c2=O)c1)C1COC1 [Compound 211] | 1000 to 3000 |
| Cn1cnnc1[C@]1(c2cccc(-n3cc4c(C(F)(F)F)cc(C#N)cn4c3=O)c2)C[C@H](C)C1 [Compound 212] | 100 to 300 |
| Cn1cnnc1[C@]1(c2cccc(-n3cc4c(C(F)(F)F)cc(CN5CC[C@H](F)C5)cn4c3=O)c2)C[C@@H](C)C1 [Compound 216] | < 100 |
| Cc1c[nH]nc1[C@@H](c1cccc(-n2cc3c(C(F)(F)F)cc(CN4CCC[C@H](C)C4)cn3c2=O)c1)C1CCC1 [Compound 219] | < 100 |
| Cc1c[nH]nc1[C@H](c1cccc(-n2cc3c(C(F)(F)F)cc(CN4CCO[C@H](C)C4)cn3c2=O)c1)C1CCC1 [Compound 220] | 3000 to 10000 |
| Cc1c[nH]nc1[C@@H](c1cccc(-n2cc3c(C(F)(F)F)cc(CN4CCO[C@H](C)C4)cn3c2=O)c1)C1CCC1 [Compound 221] | 100 to 300 |
| COC1CCN(Cc2cc(C(F)(F)F)c3cn(-c4cccc([C@H](c5nncn5C)C5CCC5)c4)c(=O)n3c2)CC1 [Compound 225] | < 100 |
| Cn1cnnc1[C@]1(c2cccc(-n3cc4c(C(F)(F)F)cc(CN5CC6(CC6)C5)cn4c3=O)c2)C[C@@H](C)C1 [Compound 228] | < 100 |
| Cn1cnnc1[C@]1(c2cccc(-n3cc4c(C(F)(F)F)cc(CN5CCC(F)CC5)cn4c3=O)c2)C[C@@H](C)C1 [Compound 229] | < 100 |
| Cn1cnnc1C1(c2cccc(-n3cc4c(C(F)(F)F)cc(Br)cn4c3=O)c2)COC1 [Compound 230] | > 10000 |
| Cc1cc(-n2cc3c(C(F)(F)F)cc(Br)cn3c2=O)cc(C2(Cc3nncn3C)COC2)c1 [Compound 238] | 1000 to 3000 |
| Cc1cc(-n2cc3c(C(F)(F)F)cc(CN4CCC[C@H](C)C4)cn3c2=O)cc(C2(Cc3nncn3C)COC2)c1 [Compound 239] | < 100 |
| Cc1c[nH]nc1C1(c2cccc(-n3cc4c(C(F)(F)F)cc(CN5CCO[C@H](C)C5)cn4c3=O)c2)CC2(CC2)C1 [Compound 241] | 301 to 1000 |
| C[C@@H]1CN(Cc2cc(C(F)(F)F)c3cn(-c4cccc([C@H](c5nncn5C)C5CCC5)c4)c(=O)n3c2)CCO1 [Compound 244] | < 100 |

Continued, values first:

| IC50 [nM] | Compound |
| --- | --- |
| < 100 | Cn1cnnc1[C@@H](c1cccc(-n2cc3c(C(F)(F)F)cc(CN4CCC(C)(C)C4)cn3c2=O)c1)C1CCC1 [Compound 245] |
| < 100 | CC(C)CN(C)Cc1cc(C(F)(F)F)c2cn(-c3cccc([C@H](c4nncn4C)C4CCC4)c3)c(=O)n2c1 [Compound 246] |
| < 100 | C[C@H]1CCN(Cc2cc(C(F)(F)F)c3cn(-c4cccc([C@H](c5nncn5C)C5CCC5)c4)c(=O)n3c2)C1 [Compound 247] |
| < 100 | C[C@@H]1CCN(Cc2cc(C(F)(F)F)c3cn(-c4cccc([C@H](c5nncn5C)C5CCC5)c4)c(=O)n3c2)C1 [Compound 248] |
| < 100 | CO[C@@H]1CCN(Cc2cc(C(F)(F)F)c3cn(-c4cccc([C@H](c5nncn5C)C5CCC5)c4)c(=O)n3c2)C1 [Compound 249] |
| < 100 | CO[C@H]1CCCN(Cc2cc(C(F)(F)F)c3cn(-c4cccc([C@H](c5nncn5C)C5CCC5)c4)c(=O)n3c2)C1 [Compound 250] |
| < 100 | CO[C@@H]1CCCN(Cc2cc(C(F)(F)F)c3cn(-c4cccc([C@H](c5nncn5C)C5CCC5)c4)c(=O)n3c2)C1 [Compound 251] |
| < 100 | COC1(CNCc2cc(C(F)(F)F)c3cn(-c4cccc(C5(Cc6nncn6C)COC5)c4)c(=O)n3c2)CC1 [Compound 252] |
| < 100 | Cn1cnnc1CC1(c2cccc(-n3cc4c(C(F)(F)F)cc(CNCC5CCCO5)cn4c3=O)c2)COC1 (stereo not drawn) [Compound 253] |
| 1000 to 3000 | Cn1cnnc1CC1(c2cc(C#N)cc(-n3cc4c(C(F)(F)F)cc(Br)cn4c3=O)c2)COC1 [Compound 254] |
| < 100 | C[C@H]1CCCN(Cc2cc(C(F)(F)F)c3cn(-c4cccc([C@]5(c6nncn6C)C[C@@H](O)C5)c4)c(=O)n3c2)C1 [Compound 255] |
| < 100 | Cn1cnnc1[C@@H](c1cccc(-n2cc3c(C(F)(F)F)cc(CN4CCC(=O)N4)cn3c2=O)c1)C1CCC1 [Compound 258] |
| < 100 | CO[C@H]1CCN(Cc2cc(C(F)(F)F)c3cn(-c4cccc([C@H](c5nncn5C)C5CCC5)c4)c(=O)n3c2)C1 [Compound 259] |
| < 100 | C[C@H]1CCCN(Cc2cc(C(F)(F)F)c3cn(-c4cccc(N(c5nncn5C)C5CCC5)c4)c(=O)n3c2)C1 [Compound 260] |
| < 100 | Cn1cnnc1[C@@H](c1cccc(-n2cc3c(C(F)(F)F)cc(CN4CCc5ncsc5C4)cn3c2=O)c1)C1CCC1 [Compound 265] |
| < 100 | CO[C@H](C)CNCc1cc(C(F)(F)F)c2cn(-c3cccc(C4(Cc5nncn5C)COC4)c3)c(=O)n2c1 [Compound 266] |
| > 10000 | Cc1c[nH]nc1[C@H](c1cccc(-n2cc3c(C(F)(F)F)cc(CN4CCO[C@H](C)C4)cn3c2=O)c1)C1COC1 [Compound 267] |
| > 10000 | Cc1c[nH]nc1[C@@H](c1cccc(-n2cc3c(C(F)(F)F)cc(CN4CCO[C@H](C)C4)cn3c2=O)c1)C1COC1 [Compound 268] |

| IC50 [nM] | Compound |
| --- | --- |
| < 100 | C[C@H]1CCCN(Cc2cc(C(F)(F)F)c3cn(-c4cccc([C@@H](c5nnc[nH]5)C5CCC5)c4)c(=O)n3c2)C1 [Compound 269] |
| > 10000 | C[C@H]1CCCN(Cc2cc(C(F)(F)F)c3cn(-c4cccc([C@H](c5ncn[nH]5)C5CCC5)c4)c(=O)n3c2)C1 [Compound 270] |
| < 100 | CN(Cc1cc(C(F)(F)F)c2cn(-c3cccc([C@H](c4nncn4C)C4CCC4)c3)c(=O)n2c1)Cc1cncs1 [Compound 275] |
| < 100 | Cn1cnnc1[C@@H](c1cccc(-n2cc3c(C(F)(F)F)cc(CN4CC5(CSC5)C4)cn3c2=O)c1)C1CCC1 [Compound 276] |
| > 10000 | Cc1cc(-n2cc3c(C(F)(F)F)cc(CN4CCO[C@H](C)C4)cn3c2=O)cc(C2(Cc3nncn3C)COC2)c1 [Compound 277] |
| < 100 | [2H]C([2H])([2H])n1cnnc1CC1(c2cccc(-n3cc4c(C(F)(F)F)cc([C@H](C)N5CCC[C@H](C)C5)cn4c3=O)c2)COC1 [Compound 278_P1] |
| < 100 | [2H]C([2H])([2H])n1cnnc1CC1(c2cccc(-n3cc4c(C(F)(F)F)cc([C@@H](C)N5CCC[C@H](C)C5)cn4c3=O)c2)COC1 [Compound 278_P2] |
| 301 to 1000 | C[C@@H]1CN(Cc2cc(C(F)(F)F)c3cn(-c4cccc(C5(c6nncn6C)CC(F)(F)C5)c4)c(=O)n3c2)CCO1 [Compound 279] |
| > 10000 | Cc1c[nH]nc1[C@H](c1cccc(-n2cc3c(C(F)(F)F)cc(CN4CCC[C@H](C)C4)cn3c2=O)c1)C1COC1 [Compound 280] |
| > 10000 | Cc1c[nH]nc1[C@@H](c1cccc(-n2cc3c(C(F)(F)F)cc(CN4CCC[C@H](C)C4)cn3c2=O)c1)C1COC1 [Compound 281] |
| 301 to 1000 | Cn1cnnc1[C@@H](c1cccc(-n2cc3c(C(F)(F)F)cc(CN4CC[C@H](C(F)(F)F)C4)cn3c2=O)c1)C1CCC1 [Compound 284] |
| < 100 | Cn1cnnc1[C@@H](c1cccc(-n2cc3c(C(F)(F)F)cc(CN4CC5(CCC5)C4)cn3c2=O)c1)C1CCC1 [Compound 286] |
| < 100 | [2H]C([2H])([2H])n1cnnc1CC1(c2cccc(-n3cc4c(C(F)(F)F)cc([C@H](C)N5CCO[C@H](C)C5)cn4c3=O)c2)COC1 [Compound 287_P1] |
| < 100 | [2H]C([2H])([2H])n1cnnc1CC1(c2cccc(-n3cc4c(C(F)(F)F)cc([C@@H](C)N5CCO[C@H](C)C5)cn4c3=O)c2)COC1 [Compound 287_P2] |
| < 100 | C[C@@H]1CN(Cc2cc(C(F)(F)F)c3cn(-c4cccc([C@H](c5nncn5C)C5CCC5)c4)c(=O)n3c2)CCS1 [Compound 290] |
| > 10000 | C[C@@H]1CN(Cc2cc(C(F)(F)F)c3cn(-c4cccc([C@H](c5nncs5)C5CCC5)c4)c(=O)n3c2)CCO1 [Compound 291] |
| 1000 to 3000 | C[C@H]1CCCN(Cc2cc(C(F)(F)F)c3cn(-c4cccc(Cc5nncn5C)c4)c(=O)n3c2)C1 [Compound 294] |
